From patent US9169241B2, “Quinolinyloxyphenylsulfonamides” (Max-Planck-Gesellschaft Zur Forderung der Wissenschaften …, priority 2009, dated 2015)
pIC50: −log10 of the molar value. Read-outs that look alike come from different tables or passages of the source.

Tests used:
[1] = system: cells; assay: Boyden chamber migration assay (Table VI); type: cell-based; details: Homo sapiens, Hs-578T, 16 h, Hs578T cells; 16 h migration
Experimental: The Boyden chamber assay is based on a chamber of two medium-filled compartments separated by a microporous membrane of 8 μM (Cell culture insert 8.0 μM pore size, BD Biosciences, Bedford, Mass.). The boyden chamber migration assays were carried out according to the supplier's instructions. In general, 20000 cells are placed in the upper compartment with medium containing 0% FCS plus 0.1% BSA and are allowed to migrate 16 h through the pores of the membrane into the lower compartment, which is filled with cell culture medium containing 10% FCS as chemotactic agents. The cells remaining in the insert were removed with a cotton swab, and the cells on the bottom of the filter were fixed and counted. (Zhang Y X, et al. AXL is a potential target for therapeutic intervention in breast cancer progression. Cancer Res. 2008; 68:1905-15).

[2] = system: indicated cell line; assay: Wound healing migration assay (Table IV); type: cell-based; details: compounds at 12.5, 6.25, 3.125 μM, 48 h-72 h
Experimental: This method mimics cell migration during wound healing in vivo. The basic steps involve creating a “wound” in a cell monolayer, capturing the images at the beginning and at regular intervals during cell migration to close the wound, and comparing the images to quantify the migration rate of the cells. In detail, 150000 cell/24 well have been seeded and allowed to form a monolayer overnight. Subsequently a “wound” or “scratch” has been performed with a 1000 μl pipette tip. The STDV of wound size is normally below 10% at time point t0. The assay was stopped by fixation with 0.05% Crystal violet/20% methanol when control scratches were closed. The assay was terminated between 48 h and 72 h depending on the migration potential of the indicated cell line. The “wounds” were visualized with a Zeiss Axiovert S100 microscope (Carl Zeiss UK, Welwyn Garden City, UK). The tested compounds were used at 12.5 μM, 6.25, 3.125 μM and DMSO control. IC50 values have been calculated as 50% wound size in between t0 and t48 or t72.

[3] = system: tumor cell; assay: Matrigel outgrowth assay/branching assay (Table Va); type: cell-based
Experimental: The Matrigel outgrowth assay is based on the ability of tumor cell to penetrate a solid gel of extracellular matrix proteins mimicking the metastasis formation in vivo. While cells with low invasive potential appear as roundish cell or cell cluster, cells with high invasive potential penetrate the Matrigel and form polymorphic structures. In detail 65 μl of Matrigel matrix (Matrigel™ Matrix, BD Biosciences, Bedford, Mass., USA) with a concentration of 3 mg/ml have been polymerized in 96 well plates for 1 h at 37° C. Subsequently 5000 cell/well were seeded into each well containing cell culture medium and indicated compound with concentrations of 3.125 μM, 1.56 μM and 0.78 μM as well as DMSO control. After 48 h, 72 h and 96 h images of cell were taken on an inverted microscope using a 5× objective (Zeiss Axiovert S100 microscope Carl Zeiss UK, Welwyn Garden City, UK). Only compound concentrations were total branching inhibition was evident were accounted as positive. Method was used as previously described, with some modifications (Thompson E W, et al. Association of increased basement membrane invasiveness with absence of estrogen receptor and expression of vimentin in human breast cancer cell lines. J Cell Physiol 1992; 150:534-44).

[4] = system: C8161; assay: Apoptosis assay (Cellomics, nucleus condensation); type: cell-based; details: Homo sapiens, Table III, read-out: Apoptosis induction in C8161
Text: (§1) The Cellomics BioApplication (Thermo Fischer Cellomics Products, Pittsburgh, Pa.) is an automated image analysis algorithm that provides detailed analysis of phenotypes related to apoptosis. As one of the most prominent characteristics of apoptotics cell a nucleus condensation takes place. This can be measured fluorescence signal intensity using a CCD camera on fully automated microscope system. The Cellomics system is able to quantify the fluorescence intensity per single nucleus and calculates the variation of signal intensity in each cell population. […] Additionally the number of detected cell decreases normally in apoptotic cell populations. In detail 5000 cell per 96 well were labeled with DNA intercalating dye (Hoechst 33342, Sigma, Steinheim, Germany) to visualize the nucleus in a fluorescence microscope under live conditions. The apoptosis assay was performed 24 h and 48 h after addition of compound at concentrations 12.5 μM, 6.25 μM, 3.125 μM, 1.56 μM, 0.78 μM, 0.39 μM as well as DMSO control for 48 h.

[5] = system: SF126; assay: Apoptosis assay (Cellomics, nucleus condensation); type: cell-based; details: Homo sapiens, SF-126, Table III, read-out: Apoptosis induction in SF126
Text: as §1

[6] = system: Hs578T; assay: Apoptosis assay (Cellomics, nucleus condensation); type: cell-based; details: Homo sapiens, Hs-578T, Table III, read-out: Apoptosis induction in Hs578T
Text: as §1

[7] = system: U138; assay: Apoptosis assay (Cellomics, nucleus condensation); type: cell-based; details: Table III, read-out: Apoptosis induction in U138
Text: as §1

[8] = system: SF763; assay: Apoptosis assay (Cellomics, nucleus condensation); type: cell-based; details: Table III, read-out: Apoptosis induction in SF763
Text: as §1

[9] = system: viable cells in culture; assay: Cell viability assay at 10 μM (CellTiter-Glo, Table VII); type: cell-based; details: compound 10 μM, 72 h;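 note: graded A 0-20%; B 21-40%; C 41-60%; D over 60% viable cells relative to DMSO control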
Experimental: The CellTiter-Glo® Luminescent Cell Viability Assay (Promega Corporation. Madison, Wis., USA) is method a determining the number of viable cells in culture based on quantification of the ATP being present which is an indicator of metabolically active cells was used according to manufacturers protocol. In detail the assay was performed in a 96 well format were 1000 cells/well were incubated with compound at concentration 10 μM as well as DMSO control for 72 h in 100 μl cell culture medium. Percentage of inhibition was calculated compared to ATP amount of DMSO control.

[10] = system: Hs578T; assay: Matrigel outgrowth assay/branching assay; type: cell-based; details: Homo sapiens, Hs-578T; HS578T cell line; Table Ib; read-out: Total branching inhibition in Matrigel HS578T
Outline: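 Step one: Matrigel (3 mg/ml) is set for 1 h at 37° C. Step two: 5000 cells per well go on in medium with compound (0.78–3.125 μM) or DMSO. Step three: images at 48, 72 and 96 h are scored for complete loss of branching.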

## COc1cc2c(Oc3ccc(NS(=O)(=O)c4ccccc4C#N)cc3F)ccnc2cc1OCCCN1CCN(C)CC1 [Example 15, 2-Cyano-N-(3-fluoro-4-{6-methoxy-7-[3-(4-methyl-piperazin-1-yl)-propoxy]-quinolin-4-yloxy}-phenyl)-benzenesulfonamide]
other
  melting point: 109 to 111 °C
[1]
  pIC50: ≥ 5.30
[2]; Homo sapiens, C8161 cells, read-out: IC50 Wound healing Assay C8161
  pIC50: 4.30 to 4.90
[2]; SF763 cells, read-out: IC50 Wound healing Assay SF763
  pIC50: ≥ 4.90
[3]; Homo sapiens, C8161 cells, read-out: Total branching inhibition in Matrigel C8161
  pIC50: ≥ 5.30
[3]; Homo sapiens, Hs-578T, Hs578T cells, read-out: Total branching inhibition in Matrigel Hs578T
  pIC50: ≥ 5.30
[3]; U118 cells, read-out: Total branching inhibition in Matrigel U118
  pIC50: ≥ 5.30
[3]; U138 cells, read-out: Total branching inhibition in Matrigel U138
  pIC50: ≥ 5.30
[4]
  pIC50: ≥ 4.90
[5]
  pIC50: ≥ 4.90
[6]
  pIC50: ≥ 4.90
[7]
  pIC50: ≥ 4.90
[8]
  pIC50: ≥ 4.90
[9]; Homo sapiens, HCT-116, HCT116 def, read-out: percentage (%) of viable cells HCT 116def
  viability at 10 µM: > 60%
[9]; Homo sapiens, HCT-116, HCT116 wt, read-out: percentage (%) of viable cells HCT 116wt
  viability at 10 µM: > 60%
[9]; Homo sapiens, HT-29, HT29, read-out: percentage (%) of viable cells HT29
  viability at 10 µM: 41 to 60%
[9]; Homo sapiens, NCI-H358, H358, read-out: percentage (%) of viable cells H358
  viability at 10 µM: 41 to 60%
[9]; Homo sapiens, NCI-H1650, H1650, read-out: percentage (%) of viable cells H1650
  viability at 10 µM: 41 to 60%
[9]; Homo sapiens, NCI-H1666, H1666, read-out: percentage (%) of viable cells H1666
  viability at 10 µM: 41 to 60%
[9]; Homo sapiens, NCI-H1975, H1975, read-out: percentage (%) of viable cells H1975
  viability at 10 µM: 41 to 60%
[9]; Homo sapiens, NCI-H1993, H1993, read-out: percentage (%) of viable cells H1993
  viability at 10 µM: 21 to 40%
[9]; Homo sapiens, A549, read-out: percentage (%) of viable cells A549
  viability at 10 µM: > 60%
[9]; Homo sapiens, HCC827, read-out: percentage (%) of viable cells HCC827
  viability at 10 µM: > 60%
[9]; Homo sapiens, SW480, read-out: percentage (%) of viable cells SW480
  viability at 10 µM: 21 to 40%
[9]; RKO, read-out: percentage (%) of viable cells RKO
  viability at 10 µM: 41 to 60%
[10]
  pIC50: ≥ 5.00
